Experimental data from ChEMBL document CHEMBL1201862, “PubChem BioAssay data set” (2004).
Activity calls are given as the source filed them.

How the values were obtained:
[1] = target: T1, Long-chain-fatty-acid--AMP ligase FadD28 (Mycobacterium tuberculosis, UniProt P9WQ59); test: Fluorescence polarization aasay to screen for inhibitors that compete for the binding of FadD28 to a bisubstrate Measured in Biochemical System Using Plate Reader - 2147-01_Inhibitor_Dose_CherryPick_Activity.; assay type: functional, Mycobacterium tuberculosis H37Rv
T1 sequence (P9WQ59 whole entry): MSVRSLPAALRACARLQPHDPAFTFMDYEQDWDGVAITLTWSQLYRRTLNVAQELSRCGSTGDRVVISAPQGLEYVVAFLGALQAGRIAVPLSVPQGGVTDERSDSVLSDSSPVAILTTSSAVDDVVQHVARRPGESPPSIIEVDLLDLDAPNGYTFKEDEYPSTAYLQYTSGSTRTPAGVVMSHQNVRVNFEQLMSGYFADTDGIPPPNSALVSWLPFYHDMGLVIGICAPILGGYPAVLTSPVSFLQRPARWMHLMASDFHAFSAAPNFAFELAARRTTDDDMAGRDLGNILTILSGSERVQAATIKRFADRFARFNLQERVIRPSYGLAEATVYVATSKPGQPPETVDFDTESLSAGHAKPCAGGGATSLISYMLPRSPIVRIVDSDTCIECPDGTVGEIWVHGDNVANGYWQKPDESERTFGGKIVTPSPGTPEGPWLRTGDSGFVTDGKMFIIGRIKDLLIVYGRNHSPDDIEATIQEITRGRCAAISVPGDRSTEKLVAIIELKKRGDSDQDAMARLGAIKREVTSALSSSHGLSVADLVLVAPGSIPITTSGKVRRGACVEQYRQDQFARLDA

fMet-Leu-Phe receptor = target: T2, fMet-Leu-Phe receptor (Homo sapiens, UniProt P21462); test: formyl peptide receptor binders – dose response (AID 519); assay type: functional
T2 sequence (P21462 whole entry): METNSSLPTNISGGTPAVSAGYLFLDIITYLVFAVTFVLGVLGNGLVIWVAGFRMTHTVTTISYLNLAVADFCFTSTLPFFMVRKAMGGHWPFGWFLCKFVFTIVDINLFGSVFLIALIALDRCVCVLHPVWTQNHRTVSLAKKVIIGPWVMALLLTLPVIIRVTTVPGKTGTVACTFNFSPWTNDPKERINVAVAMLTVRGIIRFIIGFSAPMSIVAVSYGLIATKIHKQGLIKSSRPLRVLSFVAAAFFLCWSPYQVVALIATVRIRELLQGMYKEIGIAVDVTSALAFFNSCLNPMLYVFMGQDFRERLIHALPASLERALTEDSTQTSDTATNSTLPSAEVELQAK

[2] = target: E3 ubiquitin-protein ligase Mdm2 (Homo sapiens, UniProt Q00987); test: MDM2-luc reporter signal enhancers, multi-concentration potency testing, MDM2 ubiquitin-protein ligase inhibitor program, whole-cell format, luminescence detection, 384-well microplate (AID 1394); assay type: functional;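 also: MDM2 E3 inhibitors raise luminescence so EC50 is for signal enhancement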
[3] = target: DNA dC->dU-editing enzyme APOBEC-3G (Homo sapiens, UniProt Q9HC16); assay type: functional;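 also: Dose-response counterscreen measuring inhibition of APOBEC3G DNA deaminase activity, run while confirming APOBEC3A inhibitors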
[4] = target: T3, Carboxy-terminal domain RNA polymerase II polypeptide A small phosphatase 1 (Homo sapiens, UniProt Q9GZU7); test: CTDSP1 inhibitors, concentration-response, biochemical, absorbance readout, ultra-high-throughput screen actives (AID 540297); assay type: functional
T3 sequence (Q9GZU7 whole entry): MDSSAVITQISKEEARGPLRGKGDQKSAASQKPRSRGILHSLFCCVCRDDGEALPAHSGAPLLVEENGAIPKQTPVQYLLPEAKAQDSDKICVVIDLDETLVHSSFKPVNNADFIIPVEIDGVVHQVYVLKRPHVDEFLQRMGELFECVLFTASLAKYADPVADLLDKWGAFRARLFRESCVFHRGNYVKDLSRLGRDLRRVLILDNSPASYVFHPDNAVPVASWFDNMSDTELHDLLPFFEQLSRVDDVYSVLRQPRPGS

[5] = target: DNA dC->dU-editing enzyme APOBEC-3A (Homo sapiens, UniProt P31941); test: Dose Response confirmation of small molecule APOBEC3A DNA Deaminase Inhibitors via a fluorescence-based single-stranded DNA deaminase assay. [Related pubchem assays (depositor defined):AID493011, AID493024]; assay type: functional
Fatty acid synthase [6] = target: T4, Fatty acid synthase (Homo sapiens, UniProt P49327); test: inhibition of human FAS-TE enzyme activity – biochemical, kinetic fluorescence intensity, dose response (AID 624326); assay type: functional;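 also: rate of fluorescence rise from hydrolysis of a fluorogenic O-methyl fluorescein ester substrate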
[7] = target: Delta-type opioid receptor (Homo sapiens, UniProt P41143); test: Counterscreen for agonists of heterodimerization of the mu 1 (OPRM1) and delta 1 (OPRD1) opioid receptors: Luminescence-based cell-based high throughput dose response assay to identify agonists of OPRD1 homodimerization. [Related pubchem assays (depositor defined):AID504326, AID504355, AID504692, AID504904, AID504905]; assay type: functional
Paired box protein Pax-8 = Paired box protein Pax-8 (Homo sapiens, UniProt Q06710); test: PAX8 transcriptional activity inhibition in RMG-I – RMG-I cells, luciferase, cherry-pick, dose response (AID 687027); assay type: functional, cell-based;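 also: luciferase reporter driven by Pax8 target thyroperoxidase promoter measured by SteadyGlo luminescence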
Mu-type opioid receptor = Mu-type opioid receptor (Homo sapiens, UniProt P35372); test: Counterscreen for agonists of heterodimerization of the mu 1 (OPRM1) and delta 1 (OPRD1) opioid receptors: Luminescence-based cell-based high throughput dose response assay to identify agonists of OPRM1 homodimerization.; assay type: functional;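 also: U2OS cells expressing OPRM1 and beta-arrestin as split beta-galactosidase partners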
Fatty acid synthase [8] = target: T4, Fatty acid synthase; test: inhibition of human FAS-TE enzyme activity – biochemical, endpoint fluorescence intensity, uHTS hits, dose response (AID 624327); assay type: functional;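 also: fluorescence from hydrolysis of an O-methyl fluorescein acyl ester substrate by the enzyme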
[9] = target: Photoreceptor-specific nuclear receptor (Homo sapiens, UniProt Q9Y5X4); assay type: functional, cell-based;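 also: CHO-S cells with Gal4-NCOR and VP16-NR2E3 two-hybrid luciferase reporter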
[10] = target: T5, Hepatocyte nuclear factor 4-alpha (Homo sapiens, UniProt P41235); assay type: functional, cell-based;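 also: biochemical luminescence-based dose-response counterscreen measuring inhibition of HNF4 dimerization, run alongside a screen for blockers of ABHD5–perilipin-5 interaction; split luciferase complementation of HNF4 fusion proteins in cell lysate measuring dimerization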
T5 sequence (P41235 whole entry): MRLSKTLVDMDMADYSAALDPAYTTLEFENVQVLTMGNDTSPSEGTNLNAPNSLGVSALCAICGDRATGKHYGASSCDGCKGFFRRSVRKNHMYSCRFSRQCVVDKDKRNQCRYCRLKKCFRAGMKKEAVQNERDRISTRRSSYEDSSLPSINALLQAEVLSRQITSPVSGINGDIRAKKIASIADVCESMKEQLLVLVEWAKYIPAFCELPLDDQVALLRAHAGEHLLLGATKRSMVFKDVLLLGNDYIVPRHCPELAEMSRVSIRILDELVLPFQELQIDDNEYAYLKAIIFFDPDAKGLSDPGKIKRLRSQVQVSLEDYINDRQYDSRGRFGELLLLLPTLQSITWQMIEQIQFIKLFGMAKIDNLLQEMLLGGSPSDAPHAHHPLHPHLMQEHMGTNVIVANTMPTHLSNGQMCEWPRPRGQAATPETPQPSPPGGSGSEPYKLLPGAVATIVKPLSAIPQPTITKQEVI

[11] = target: 5-hydroxytryptamine receptor 5A (Homo sapiens, UniProt P47898); test: Counterscreen for agonists of OPRM1-OPRD1 heterodimerization: luminescence-based cell-based high throughput dose response assay to identify agonists of 5-hydroxytryptamine (serotonin) 5A receptor (HTR5A). [Related pubchem assays (depositor defined):AID504326, AID504355, AID504692, AID504904, AID504905]; assay type: functional
[12] = target: T6, Small ubiquitin-related modifier 1 (Homo sapiens, UniProt P63165); test: SUMO1 protein-protein binding blockers, potency – biochemical, FRET, dose response (AID 624383); assay type: functional; conditions: read-out: IC50_Mean
[13] = target: T6, Small ubiquitin-related modifier 1; test: SUMO1 protein interaction blockers, potency – biochemical, fluorescence polarization, uHTS hits, dose response (AID 624382); assay type: functional; conditions: read-out: IC50_Mean
[14] = OVCAR-3 cell viability loss – plate reader, dry powder samples, PAX8 inhibitor project, dose response (AID 743044); assay type: functional, cell-based
[15] = OVCAR8 cell viability loss – plate reader, dry powder samples, PAX8 project, dose response (AID 743197); assay type: functional, cell-based; conditions: OVCAR-8
[16] = general cell-killing toxicity readout – plate reader, dry powder samples, cytotoxicity control for PAX8 inhibitor project, dose response (AID 743021); assay type: functional, cell-based
[17] = IGROV1 cell killing – plate reader, dry powder samples, PAX8 inhibitor project, dose response (AID 743043); assay type: functional, cell-based; conditions: IGROV-1
[18] = target: Voltage-gated inwardly rectifying potassium channel KCNH2 (Homo sapiens, UniProt Q12809); test: concentration-dependent hERG rescue from blockers – cell-based, thallium flux, dose response (AID 2121); assay type: ADME
SN12K1 = test: cells; assay type: functional; conditions: Homo sapiens, SN12K1
P388/ADR = test: cells; assay type: functional; conditions: Mus musculus
P388 = test: cells; assay type: functional; conditions: Mus musculus, P388

T6 sequence (P63165 whole entry): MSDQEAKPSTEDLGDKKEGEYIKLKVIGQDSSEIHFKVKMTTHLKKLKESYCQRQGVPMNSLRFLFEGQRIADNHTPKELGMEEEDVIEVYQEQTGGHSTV
Paired box protein Pax-8, sequence (Q06710 whole entry): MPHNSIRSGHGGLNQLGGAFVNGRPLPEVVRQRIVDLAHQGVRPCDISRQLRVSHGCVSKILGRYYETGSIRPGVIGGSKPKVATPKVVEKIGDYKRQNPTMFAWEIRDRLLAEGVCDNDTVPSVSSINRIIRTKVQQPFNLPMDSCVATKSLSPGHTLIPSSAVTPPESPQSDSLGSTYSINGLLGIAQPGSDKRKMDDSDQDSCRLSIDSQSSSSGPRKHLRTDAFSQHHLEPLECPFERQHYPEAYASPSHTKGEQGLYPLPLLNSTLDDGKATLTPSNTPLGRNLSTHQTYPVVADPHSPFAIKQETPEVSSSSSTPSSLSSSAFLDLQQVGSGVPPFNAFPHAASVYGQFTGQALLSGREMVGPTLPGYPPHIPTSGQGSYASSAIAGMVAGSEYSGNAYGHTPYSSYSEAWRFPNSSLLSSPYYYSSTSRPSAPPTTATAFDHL
T4 sequence (P49327 whole entry): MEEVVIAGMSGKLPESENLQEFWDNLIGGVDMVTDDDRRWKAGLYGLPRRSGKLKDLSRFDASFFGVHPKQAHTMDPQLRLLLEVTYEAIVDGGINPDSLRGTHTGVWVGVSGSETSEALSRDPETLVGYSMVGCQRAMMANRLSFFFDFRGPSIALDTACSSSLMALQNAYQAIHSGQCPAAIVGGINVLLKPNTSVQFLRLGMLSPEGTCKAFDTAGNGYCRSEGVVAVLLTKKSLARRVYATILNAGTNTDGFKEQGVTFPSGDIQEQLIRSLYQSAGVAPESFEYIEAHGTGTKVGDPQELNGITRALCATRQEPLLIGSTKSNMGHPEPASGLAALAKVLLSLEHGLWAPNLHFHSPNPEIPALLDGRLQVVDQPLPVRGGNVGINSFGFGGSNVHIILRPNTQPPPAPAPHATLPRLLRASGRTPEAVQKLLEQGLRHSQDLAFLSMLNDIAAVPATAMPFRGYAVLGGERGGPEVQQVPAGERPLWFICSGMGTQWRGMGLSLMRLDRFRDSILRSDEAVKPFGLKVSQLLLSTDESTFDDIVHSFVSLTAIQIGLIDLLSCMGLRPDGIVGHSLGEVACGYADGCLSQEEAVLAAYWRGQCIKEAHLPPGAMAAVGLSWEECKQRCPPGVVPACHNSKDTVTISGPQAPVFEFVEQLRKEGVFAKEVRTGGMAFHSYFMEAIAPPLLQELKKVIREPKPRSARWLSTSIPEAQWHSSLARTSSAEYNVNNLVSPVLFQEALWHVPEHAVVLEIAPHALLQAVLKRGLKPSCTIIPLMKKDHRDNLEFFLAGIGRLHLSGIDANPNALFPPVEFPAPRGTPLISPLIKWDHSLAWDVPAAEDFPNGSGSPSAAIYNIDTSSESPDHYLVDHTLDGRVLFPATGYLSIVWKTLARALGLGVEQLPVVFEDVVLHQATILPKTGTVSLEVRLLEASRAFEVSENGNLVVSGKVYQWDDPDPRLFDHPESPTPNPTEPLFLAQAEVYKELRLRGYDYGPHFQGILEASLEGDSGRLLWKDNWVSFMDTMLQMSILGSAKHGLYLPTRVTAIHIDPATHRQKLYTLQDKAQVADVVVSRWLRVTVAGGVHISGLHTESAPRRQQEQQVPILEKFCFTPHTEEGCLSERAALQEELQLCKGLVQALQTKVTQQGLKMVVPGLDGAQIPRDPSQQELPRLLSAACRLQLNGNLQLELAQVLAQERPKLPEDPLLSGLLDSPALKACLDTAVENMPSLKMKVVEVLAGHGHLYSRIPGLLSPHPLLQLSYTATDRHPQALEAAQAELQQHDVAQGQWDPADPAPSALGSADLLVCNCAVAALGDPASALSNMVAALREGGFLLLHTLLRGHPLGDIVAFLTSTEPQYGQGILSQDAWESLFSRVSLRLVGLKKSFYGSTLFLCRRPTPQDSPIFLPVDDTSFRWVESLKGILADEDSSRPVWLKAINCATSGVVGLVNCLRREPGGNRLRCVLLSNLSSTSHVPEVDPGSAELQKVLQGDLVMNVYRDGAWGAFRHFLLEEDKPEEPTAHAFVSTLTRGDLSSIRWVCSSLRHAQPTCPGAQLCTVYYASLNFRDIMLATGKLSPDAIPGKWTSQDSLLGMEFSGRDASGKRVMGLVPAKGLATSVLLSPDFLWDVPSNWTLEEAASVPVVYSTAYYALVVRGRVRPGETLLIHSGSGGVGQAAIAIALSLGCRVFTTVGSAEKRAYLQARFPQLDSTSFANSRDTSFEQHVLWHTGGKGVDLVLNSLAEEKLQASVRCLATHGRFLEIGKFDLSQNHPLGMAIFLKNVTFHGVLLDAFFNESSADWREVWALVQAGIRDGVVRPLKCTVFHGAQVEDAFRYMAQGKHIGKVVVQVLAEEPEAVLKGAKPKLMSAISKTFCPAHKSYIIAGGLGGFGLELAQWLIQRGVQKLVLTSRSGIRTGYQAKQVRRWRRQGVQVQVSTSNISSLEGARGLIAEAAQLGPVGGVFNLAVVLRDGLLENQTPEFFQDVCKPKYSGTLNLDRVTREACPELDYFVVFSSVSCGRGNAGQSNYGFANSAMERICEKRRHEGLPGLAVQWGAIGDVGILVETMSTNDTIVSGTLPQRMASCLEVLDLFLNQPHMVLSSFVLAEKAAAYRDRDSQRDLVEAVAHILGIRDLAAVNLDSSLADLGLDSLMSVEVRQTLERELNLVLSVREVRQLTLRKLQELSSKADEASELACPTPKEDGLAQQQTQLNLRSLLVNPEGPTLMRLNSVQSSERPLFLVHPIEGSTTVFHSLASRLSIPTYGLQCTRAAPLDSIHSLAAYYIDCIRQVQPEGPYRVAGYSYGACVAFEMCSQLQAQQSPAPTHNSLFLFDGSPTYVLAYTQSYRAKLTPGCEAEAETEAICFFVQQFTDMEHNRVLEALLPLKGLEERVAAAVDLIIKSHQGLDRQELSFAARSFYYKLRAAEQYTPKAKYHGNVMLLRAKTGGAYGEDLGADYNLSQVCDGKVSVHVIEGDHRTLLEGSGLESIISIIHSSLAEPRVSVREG
E3 ubiquitin-protein ligase Mdm2, sequence (Q00987 whole entry): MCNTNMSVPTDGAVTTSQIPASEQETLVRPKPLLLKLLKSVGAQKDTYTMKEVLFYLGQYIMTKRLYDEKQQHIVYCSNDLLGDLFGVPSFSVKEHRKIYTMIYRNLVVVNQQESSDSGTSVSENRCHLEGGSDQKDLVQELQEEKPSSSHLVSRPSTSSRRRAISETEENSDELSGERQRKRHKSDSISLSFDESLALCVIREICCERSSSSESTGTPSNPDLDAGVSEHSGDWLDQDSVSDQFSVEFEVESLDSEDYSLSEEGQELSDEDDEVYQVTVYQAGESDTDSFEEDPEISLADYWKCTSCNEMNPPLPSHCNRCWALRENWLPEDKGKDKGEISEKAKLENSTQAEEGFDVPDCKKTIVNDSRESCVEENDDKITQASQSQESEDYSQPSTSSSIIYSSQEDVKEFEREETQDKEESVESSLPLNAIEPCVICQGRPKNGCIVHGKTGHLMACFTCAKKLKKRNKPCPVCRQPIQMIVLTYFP
DNA dC->dU-editing enzyme APOBEC-3A, sequence (P31941 whole entry): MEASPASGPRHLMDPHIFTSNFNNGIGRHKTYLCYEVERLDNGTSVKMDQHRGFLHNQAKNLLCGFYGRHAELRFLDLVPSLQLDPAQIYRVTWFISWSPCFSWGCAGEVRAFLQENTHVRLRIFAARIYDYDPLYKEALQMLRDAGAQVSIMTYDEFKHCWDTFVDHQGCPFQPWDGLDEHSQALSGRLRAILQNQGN
5-hydroxytryptamine receptor 5A, sequence (P47898 whole entry): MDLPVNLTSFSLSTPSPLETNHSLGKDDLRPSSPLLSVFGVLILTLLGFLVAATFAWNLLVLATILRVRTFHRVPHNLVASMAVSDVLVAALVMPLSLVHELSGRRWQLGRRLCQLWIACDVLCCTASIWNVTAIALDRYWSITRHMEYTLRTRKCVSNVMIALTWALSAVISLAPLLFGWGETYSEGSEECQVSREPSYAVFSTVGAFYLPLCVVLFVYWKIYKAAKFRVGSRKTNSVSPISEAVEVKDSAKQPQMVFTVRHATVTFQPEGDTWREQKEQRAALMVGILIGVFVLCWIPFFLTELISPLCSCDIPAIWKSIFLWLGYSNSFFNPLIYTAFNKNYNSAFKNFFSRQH
Photoreceptor-specific nuclear receptor, sequence (Q9Y5X4 whole entry, the tested form may be a part): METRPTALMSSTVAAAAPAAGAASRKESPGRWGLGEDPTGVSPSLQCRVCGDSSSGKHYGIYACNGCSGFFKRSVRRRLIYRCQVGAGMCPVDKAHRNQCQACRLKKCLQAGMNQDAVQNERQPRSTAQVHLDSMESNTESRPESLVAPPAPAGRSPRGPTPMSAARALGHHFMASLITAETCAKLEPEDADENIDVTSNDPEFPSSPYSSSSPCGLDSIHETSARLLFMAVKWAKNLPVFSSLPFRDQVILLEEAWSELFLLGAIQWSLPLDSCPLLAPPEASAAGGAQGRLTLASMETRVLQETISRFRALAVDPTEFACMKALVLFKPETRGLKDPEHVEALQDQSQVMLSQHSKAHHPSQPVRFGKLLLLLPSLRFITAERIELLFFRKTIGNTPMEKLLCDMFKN
Mu-type opioid receptor, sequence (P35372 whole entry): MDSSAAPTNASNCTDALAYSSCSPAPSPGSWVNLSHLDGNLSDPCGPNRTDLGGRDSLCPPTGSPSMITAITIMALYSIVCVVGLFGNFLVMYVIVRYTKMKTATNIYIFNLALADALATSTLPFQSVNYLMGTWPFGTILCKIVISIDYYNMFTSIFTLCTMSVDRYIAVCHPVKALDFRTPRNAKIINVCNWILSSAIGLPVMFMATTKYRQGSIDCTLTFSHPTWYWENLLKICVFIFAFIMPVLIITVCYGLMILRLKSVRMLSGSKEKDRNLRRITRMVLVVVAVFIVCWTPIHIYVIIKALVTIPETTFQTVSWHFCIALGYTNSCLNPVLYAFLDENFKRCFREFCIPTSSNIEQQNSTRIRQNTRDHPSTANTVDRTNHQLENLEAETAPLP

SMILES: Cc1ccc(CNC(=O)C(Cc2ccccc2)NS(=O)(=O)c2cccs2)cc1 (stereo unspecified)
- AC50 [1]: 58 µM (active)

SMILES: CCCOc1ccc(C2C(C(=O)c3ccco3)=C(O)C(=O)N2CCCn2ccnc2)cc1 (stereo unspecified)
- Ki (fMet-Leu-Phe receptor): > 66.7 µM (inactive)

SMILES: COc1ccc(-c2cc(C(F)(F)F)nc(SCC(=O)NCc3cnn(C)c3C)n2)cc1OC
- EC50 [2]: 16.3 µM (not active)

SMILES: CC(c1ccccc1)C1OCC(C[N+]2(C)CCCCC2)O1 (stereo unspecified)
- IC50 [3]: 2.72 µM (active)
- IC50 [4]: 2.75 µM (active)
- IC50 [5]: 2.81 µM (active)

SMILES: CSC(=Nc1ccccc1)N=C(SCc1ccccc1)N(C)C
- IC50 (Fatty acid synthase [6]): 1.04 µM (active)
- EC50 [7]: > 92.4 µM (inactive)
- AC50 (Paired box protein Pax-8): 4.55 µM (active)
- EC50 (Mu-type opioid receptor): > 92.4 µM (inactive)
- IC50 (Fatty acid synthase [8]): 1.37 µM (active)
- IC50 [9]: 2.61 µM (active)
- IC50 [10]: 3.95 µM (active)
- EC50 [11]: > 92.4 µM (inactive)

SMILES: Cc1c(C(=O)O)cccc1-c1ccc(/C=N/n2cnnc2)o1
- IC50 [4]: 6.52 µM (active)

SMILES: CCOC(=O)c1ccc(NC(=O)c2c(N)n(Cc3ccccc3)c(=O)[nH]c2=O)cc1
- IC50 [12]: 1.43 µM (active)
- IC50 [13]: > 66.6 µM (inactive)

SMILES: C[C@@H]1CCCCO[C@H](CN(C)C(=O)Nc2cccc3ccccc23)[C@H](C)CN([C@@H](C)CO)C(=O)c2cc(NS(=O)(=O)c3ccc(Cl)cc3)ccc2O1
- AC50 (Paired box protein Pax-8): 5.39 µM (active)
- AC50 [14]: 16.8 µM (active)
- AC50 [15]: 59.6 µM (active)
- AC50 [16]: 55.2 µM (active)
- AC50 [17]: 51.8 µM (active)

SMILES: CCCCCCCC/C=C\CCCCCCCC(=O)O [OLEIC ACID]
- EC50 [18]: 10.4 µM (active)
- GI50 (SN12K1): 101 µM (inactive)
- GI50 (P388/ADR): 78.9 µM (inactive)
- GI50 (P388): 115 µM (inactive)
